# Activity calls are given as the source filed them. How the calls were made is not given here.
# Tests used:
# NB7+Caspase-8 = assay: compound enhancement of TRAIL-induced cell killing – NB7 cells plus caspase-8, luminescence, panel, dose response (AID 652002); conditions: NB7 neuroblastoma +caspase-8, TRAIL sensitization, luminescence viability, with TRAIL
# [1] = as above; conditions: NB7 neuroblastoma +caspase-8, no TRAIL, compound-alone cytotoxicity counter-screen, luminescence viability, NB7+Caspase-8
# [2] = molecular target: Tumor necrosis factor receptor superfamily member 10B (Homo sapiens) (UniProt O14763); assay: as above; conditions: NB7 neuroblastoma +caspase-8, TRAIL sensitization, luminescence viability; NB7+Caspase-8; with TRAIL, mean of runs
# Tumor necrosis factor receptor superfamily member 10B (Homo sapiens), sequence (O14763 whole entry, looked up): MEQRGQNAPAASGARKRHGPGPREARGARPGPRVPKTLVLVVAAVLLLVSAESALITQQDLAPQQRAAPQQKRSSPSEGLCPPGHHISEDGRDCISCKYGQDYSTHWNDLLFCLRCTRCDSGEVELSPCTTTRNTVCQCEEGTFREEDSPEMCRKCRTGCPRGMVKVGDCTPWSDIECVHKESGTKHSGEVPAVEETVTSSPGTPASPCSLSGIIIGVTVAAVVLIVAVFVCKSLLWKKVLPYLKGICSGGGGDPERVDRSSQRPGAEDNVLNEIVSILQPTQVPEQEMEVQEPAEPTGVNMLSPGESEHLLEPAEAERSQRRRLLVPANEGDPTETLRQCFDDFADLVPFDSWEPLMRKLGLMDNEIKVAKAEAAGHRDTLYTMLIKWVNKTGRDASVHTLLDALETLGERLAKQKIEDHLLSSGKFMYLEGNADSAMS
# [3] = run 1, single replicate panel EC50
# [4] = run 2, single replicate panel EC50
Structure (SMILES),EC50 (NB7+Caspase-8; [3]),EC50 (NB7+Caspase-8; [4]),EC50 ([1]; mean of runs),"EC50 [1, 3]","EC50 [1, 4]",EC50 [2]
Cc1nc2cc(NC(=O)c3ccco3)ccc2n1C,> 12.5 µM,> 12.5 µM,inactive,> 12.5 µM,11.5 µM,> 12.5 µM (inactive)
O=C(NC(=S)Nc1nc2c(s1)CCCC2)c1ccccc1,7.43 µM,> 12.5 µM,> 12.5 µM (inactive),> 12.5 µM,> 12.5 µM,inactive
CCOc1ccc(-c2cc(C(=O)N3CCC(C)CC3)c3ccccc3n2)cc1,> 12.5 µM,11.5 µM,> 12.5 µM (inactive),> 12.5 µM,> 12.5 µM,inactive
NNC(=O)C1CCCn2c1nc1sc3c(c1c2=O)CCCC3 (configuration not stated),> 12.5 µM,> 12.5 µM,> 12.5 µM (inactive),> 12.5 µM,> 12.5 µM,> 12.5 µM (inactive)
O=C(Nc1ccc2c(c1)OCO2)c1ccc2c(c1)OCO2,> 12.5 µM,5.17 µM,inactive,6.92 µM,11.2 µM,inactive
COc1cccc(N/C=C/C(=O)c2ccc(Cl)cc2)c1,> 12.5 µM,11.1 µM,inactive,10.4 µM,10.3 µM,inactive
COc1ccccc1C=NNC(=O)NN=Cc1ccccc1OC,> 12.5 µM,7.21 µM,inactive,8.5 µM,10.3 µM,inactive
COc1ccc(-c2cc(C(=O)OCC(=O)Nc3ccc4c(c3)OCO4)c3ccccc3n2)cc1,> 12.5 µM,7.82 µM,inactive,6.39 µM,6.23 µM,inactive
Cc1ccc(S(=O)(=O)Nc2ccccc2C(=O)Nc2nc(-c3ccc(F)cc3)cs2)cc1,> 12.5 µM,9.9 µM,inactive,> 12.5 µM,8.36 µM,inactive
O=C1c2ccc(Cl)cc2S(=O)(=O)c2cccc(C(=O)N3CCC(Cc4ccccc4)CC3)c21,> 12.5 µM,> 12.5 µM,> 12.5 µM (inactive),> 12.5 µM,> 12.5 µM,> 12.5 µM (inactive)
Cc1c(P(=S)(c2ccccc2)c2ccccc2)[n+]2ccccc2n1CCc1ccccc1,> 12.5 µM,> 12.5 µM,> 12.5 µM (inactive),> 12.5 µM,> 12.5 µM,> 12.5 µM (inactive)
Cc1cc2nc3ccc(N(C)C)cc3nc2cc1N,> 12.5 µM,10.9 µM,> 12.5 µM (inactive),> 12.5 µM,> 12.5 µM,inactive
COc1ccc(-c2nc(-c3ccc(NC(=O)c4ccncc4)cc3)no2)cc1OC,> 12.5 µM,> 12.5 µM,> 12.5 µM (inactive),> 12.5 µM,> 12.5 µM,> 12.5 µM (inactive)
O=C(NC(=O)c1ccccc1)Nc1ccccc1,> 12.5 µM,> 12.5 µM,> 12.5 µM (inactive),> 12.5 µM,> 12.5 µM,> 12.5 µM (inactive)
CSc1nc(N)n2nc(-c3ccc(Cl)cc3)cc2n1,> 12.5 µM,> 12.5 µM,> 12.5 µM (inactive),> 12.5 µM,> 12.5 µM,> 12.5 µM (inactive)
Cc1ccn2cc(C(=O)Nc3ccc4c(c3)OCCO4)nc2c1,> 12.5 µM,4.29 µM,inactive,7.08 µM,8.4 µM,inactive
O/C(=C\c1ccc2ccccc2n1)c1ccc(O)cc1O,> 12.5 µM,7.58 µM,> 12.5 µM (inactive),> 12.5 µM,> 12.5 µM,inactive
Cc1onc(-c2c(Cl)cccc2Cl)c1C(=O)ONC(=O)c1ccccc1,> 12.5 µM,> 12.5 µM,> 12.5 µM (inactive),> 12.5 µM,> 12.5 µM,> 12.5 µM (inactive)
Cc1nc2cc(NC(=O)Nc3cccc([N+](=O)[O-])c3)ccc2n1C,> 12.5 µM,6.56 µM,> 12.5 µM (inactive),> 12.5 µM,> 12.5 µM,inactive
COc1cccc(C(=O)Nc2ccc(C3CC3(Cl)Cl)cc2)c1 (configuration not stated),> 12.5 µM,> 12.5 µM,> 12.5 µM (inactive),> 12.5 µM,> 12.5 µM,> 12.5 µM (inactive)
CCC(C)c1ccc(O)c(NC(=S)NC(=O)c2cccs2)c1 (configuration not stated),> 12.5 µM,7.09 µM,inactive,5.97 µM,8.18 µM,inactive
CCOC(=O)c1cnc2c(-c3ccccc3)cnn2c1N,> 12.5 µM,> 12.5 µM,> 12.5 µM (inactive),> 12.5 µM,> 12.5 µM,> 12.5 µM (inactive)
COc1ccc(NS(=O)(=O)c2cccc(C(=O)N/N=C/c3c(F)c(F)c(F)c(F)c3F)c2)cc1,> 12.5 µM,> 12.5 µM,inactive,> 12.5 µM,11.4 µM,> 12.5 µM (inactive)
CCSc1ccc(-c2ccc(C)cc2)nn1,> 12.5 µM,7.07 µM,inactive,> 12.5 µM,8.12 µM,inactive
Cc1cccc(CC(=O)Nc2cc(C)c3c(=O)oc4ccccc4c3n2)c1,> 12.5 µM,> 12.5 µM,> 12.5 µM (inactive),> 12.5 µM,> 12.5 µM,> 12.5 µM (inactive)
CCCCCCc1cc2cc(S(=O)(=O)c3ccc(F)c(Cl)c3)c(=O)oc2cc1O,> 12.5 µM,> 12.5 µM,> 12.5 µM (inactive),> 12.5 µM,> 12.5 µM,> 12.5 µM (inactive)
CN(C)CCCN(C(=O)c1ccc(C(=O)c2ccccc2)cc1)c1nc2ccc(F)cc2s1,> 12.5 µM,> 12.5 µM,> 12.5 µM (inactive),> 12.5 µM,> 12.5 µM,> 12.5 µM (inactive)

# From PubChem BioAssay AID652002 (Sanford-Burnham Center for Chemical Genomics, 2013)
